Results on 14 molecules are retold here after US10968218B2, “Tetrahydropyridopyrimidines for the treatment and prophylaxis of hepatitis B virus infection” (Hoffmann-La Roche Inc., priority 2016, dated 2021).

pIC50: −log10 of the molar value.

This test deals with HBsAg. Description: HBsAg assay (CLIA of secreted HBsAg in HepG2.2.15 culture supernatant). The format is cell-based, HBV. The settings on record: Hepatitis B virus. The procedure:
HepG2.2.15 cells (Acs et al. Proc Natl Acad Sci USA, 84, (1987), 4641-4), a constitutively HBV-expressing cell line were cultured in DMEM+Glutamax-I medium (Invitrogen, Carlsbad, Calif., USA), supplemented with 10% fetal bovine serum (Invitrogen) and G418 (Invitrogen) at a final concentration of 200 mg/L and maintained in 5% CO2 at 37° C.
HepG2.2.15 cells were seeded in duplicate into white, 96-well plates at 1.5×10^4 cells/well. The cells were treated with a three-fold serial dilution series of the compounds in DMSO. The final DMSO concentration in all wells was 1% and DMSO was used as no drug control.
The HBsAg chemiluminescence immunoassay (CLIA) kit (Autobio Diagnostics Co., Zhengzhou, China, Catalog number: CL0310-2) was used to measure the levels of secreted HBV antigens semi-quantitatively. For the detection 50 μL/well culture supernatant was used and HBsAg was quantified using HBsAg chemiluminescence immunoassay (CLIA) kit (Autobio Diagnostics Co., Zhengzhou, China, Catalog number: CL0310-2), 50 μL of the supernatant was transferred to the CLIA assay plate and 50 μL of enzyme conjugate reagent was added into each well. The plates were sealed and gently agitated for 1 hour at room temperature. The supernatant-enzyme-mixture was discarded and wells were washed 6 times with 300 μL of PBS. The residual liquid was removed by plating the CLIA plate right side down on absorbent tissue paper. 25 μL of substrates A and B were added to each well. Luminance was measured using a luminometer (Mithras LB 940 Multimode Microplate Reader) after 10 minutes incubation. Dose-response curves were generated and the IC50 value was extrapolated by using the E-WorkBook Suite (ID Business Solutions Ltd., Guildford, UK). The IC50 was defined as the compound concentration at which HBsAg secretion was reduced by 50% compared to the no drug control.
The compounds according to formula I were tested for their capacity to inhibit HBsAg as described herein.
`COc1cc(N2CCc3nc(-c4nccn4C)ncc3C2)cc(F)c1F` [Example 1, 6-(3,4-Difluoro-5-methoxy-phenyl)-2-(1-methylimidazol-2-yl)-7,8-dihydro-5H-pyrido[4,3-d]pyrimidine] gave a pIC50 of 5.94.
Molecule `COc1cc(F)nc(N2CCc3nc(-n4ccnn4)ncc3C2C)c1` (centres unmarked) [Example 2, 6-(6-Fluoro-4-methoxy-2-pyridyl)-5-methyl-2-(triazol-1-yl)-7,8-dihydro-5H-pyrido[4,3-d]pyrimidine] gave a pIC50 of 4.64.
The same measure for `COc1cc(F)nc(N2CCc3nc(-n4nccn4)ncc3C2C)c1` (centres unmarked) [Example 3, 6-(6-Fluoro-4-methoxy-2-pyridyl)-5-methyl-2-(triazol-2-yl)-7,8-dihydro-5H-pyrido[4,3-d]pyrimidine]: 6.18.
`COc1cc(F)nc(N2CCc3nc(-c4ncco4)ncc3C2C)c1` (centres unmarked) [Example 4, 2-[6-(6-Fluoro-4-methoxy-2-pyridyl)-5-methyl-7,8-dihydro-5H-pyrido[4,3-d]pyrimidin-2-yl]oxazole] showed a pIC50 of 6.50.
The same measure for `COc1cc(F)nc(N2CCc3nc(-c4nccs4)ncc3C2C)c1` (centres unmarked) [Example 6, 2-[6-(6-Fluoro-4-methoxy-2-pyridyl)-5-methyl-7,8-dihydro-5H-pyrido[4,3-d]pyrimidin-2-yl]thiazole]: 6.93; for `COc1cc(F)nc(N2CCc3nc(-c4nccn4C)ncc3C2C)c1` (centres unmarked) [Example 7, 6-(6-Fluoro-4-methoxy-2-pyridyl)-5-methyl-2-(1-methylimidazol-2-yl)-7,8-dihydro-5H-pyrido[4,3-d]pyrimidine]: 4.78.
Regarding `COc1cc(F)nc(N2CCc3nc(-c4cn(C)cn4)ncc3C2C)c1` (centres unmarked) [Example 8, 6-(6-Fluoro-4-methoxy-2-pyridyl)-5-methyl-2-(1-methylimidazol-4-yl)-7,8-dihydro-5H-pyrido[4,3-d]pyrimidine], the pIC50 was 7.54.
`COc1cc(F)nc(N2CCc3nc(-n4cccn4)ncc3C2C)c1` (centres unmarked) [Example 9, 6-(6-Fluoro-4-methoxy-2-pyridyl)-5-methyl-2-pyrazol-1-yl-7,8-dihydro-5H-pyrido[4,3-d]pyrimidine] gave a pIC50 of 7.02.
With `COc1cc(F)nc(N2CCc3nc(-c4cn(Cc5ccccc5)cn4)ncc3C2C)c1` (centres unmarked) [Example 10, 2-(1-Benzylimidazol-4-yl)-6-(6-fluoro-4-methoxy-2-pyridyl)-5-methyl-7,8-dihydro-5H-pyrido[4,3-d]pyrimidine], the pIC50 is 6.38. Against the preceding molecule, the pIC50 is 0.64 log units lower.
The molecule `CC1c2cnc(-c3cscn3)nc2CCN1c1cc(N(C)C)cc(F)n1` (centres unmarked) [Example 11, 2-Fluoro-N,N-dimethyl-6-(5-methyl-2-thiazol-4-yl-7,8-dihydro-5H-pyrido[4,3-d]pyrimidin-6-yl)pyridin-4-amine] had a pIC50 of 7.59.
The same measure for `CC1c2cnc(-c3cscn3)nc2CCN1c1cc(F)nc(N2CCOCC2)c1` (centres unmarked) [Example 12, 4-[6-fluoro-4-(5-methyl-2-thiazol-4-yl-7,8-dihydro-5H-pyrido[4,3-d]pyrimidin-6-yl)-2-pyridyl]morpholine]: 7.44.
Regarding `CC1c2cnc(-c3cscn3)nc2CCN1c1cc(N2CCOCC2)cc(F)n1` (centres unmarked) [Example 13, 4-[2-fluoro-6-(5-methyl-2-thiazol-4-yl-7,8-dihydro-5H-pyrido[4,3-d]pyrimidin-6-yl)-4-pyridyl]morpholine], the negative-log IC50 (pIC50) was 7.48.
The same measure for `CC1c2cnc(-c3cscn3)nc2CCN1c1cc(F)cc(N2CCOCC2)n1` (centres unmarked) [Example 14, 4-[4-fluoro-6-(5-methyl-2-thiazol-4-yl-7,8-dihydro-5H-pyrido[4,3-d]pyrimidin-6-yl)-2-pyridyl]morpholine]: 7.13.
The same measure for `COc1cc(F)nc(N2CCc3nc(-c4csc(C)n4)ncc3C2C)c1` (centres unmarked) [Example 15, 4-[6-(6-fluoro-4-methoxy-2-pyridyl)-5-methyl-7,8-dihydro-5H-pyrido[4,3-d]pyrimidin-2-yl]-2-methyl-thiazole]: 5.82.
